Laboratory results published in patent publication US20020032214A1, “Pharmaceutical composition comprising a compound having anti-xa activity and a platelet aggregation antagonist compound” (priority 1996, published 2002).

Assay: Template bleeding time in the canine model of unstable angina
Type: in vivo, Mongrel dogs
Details: high-dose of the platelet aggregation antagonist compound, i.v., dogs
Description: Mongrel dogs of either sex (15-21 kg) are anesthetized with sodium pentobarbital (30 mg/kg, i.v., with supplements given as needed), intubated, and ventilated using a Harvard respirator (Harvard Apparatus. S. Natick, Mass.). A tri-lumen catheter (SAFEDWELLplus, Becton Dickinson, Sandy, Utah) is placed in the right femoral vein for the administration of test agents and supplemental anesthesia. The right femoral artery is cannulated for measurement of arterial blood pressure and for obtaining blood samples.
Thirty dogs are assigned to one of six adjunctive treatment groups. […]
After consistent CFRs are established for at least 20 minutes, compounds are administered as described above and blood flow is monitored during the one hour infusion period. […] Mean arterial blood pressure, heart rate and EKG are recorded for the duration of the protocol (Grass polygraph, Model 7D, Grass Instruments, Mass.).
Template bleeding time measurements are obtained at the same time points as the blood samples, as mentioned previously. Template bleeding time is measured after a uniform incision is made on the mucous membrane of the inner upper lip with a Surgicutt® automated incision device (ITC, Edison, N.J.). […] Template bleeding time is measured from the moment of the incision until the blood no longer stained the blotting paper. […]

increase in template bleeding time: > 5 fold
Compound: CCCCS(=O)(=O)N[C@@H](Cc1ccc(OCCCCC2CCNCC2)cc1)C(=O)O [BSPBPA, N-(n-butylsulfonyl)-4-(piperidin-4-ylbutyloxy)-L-phenylalanine]
